Patent US7253177B2, “Synthesis and antimalarial activity of pyrrolo[3,2-f]quinazoline-1,3-diamine derivatives” (United States of America as Represented by the Secretary of …, priority 2004, dated 2007)
“And” between values parts separate entries of the source, which are not always exact repeats. Identical values can stand only once.

Columns and labels:
[1] = system: P. cynomolgi sporozoites; test: Presumptive causal prophylactic test against P. cynomolgi in Rhesus monkey; format: in vivo, Plasmodium cynomolgi; settings: for protection compared with untreated control: oral 3 mg/kg, 3 mg/kg
Protocol: (e). Toxicity Study in Aotus monkey: Protocol: Two malaria double cured Aotus weighing 1027-695 grams respectively received single dose of 3 mg/kg orally of the two compounds 2b and 3e. The monkeys were weighed and pre-bleed for CBC and Chemistry (ALT, BUN, Creatinine) determination, and again three, seven and 15 days post treatment. Signs of toxicity such as anorexia, vomiting, diarrhea or behavior changes were recorded. […] (f). Antimalarial Activity against P. falciparum in Aotus monkey: Protocol: Six (6) malaria naive Aotus lemurinus lemurinus (weigh 787-978 grms) were divided into two groups of two Aotus each plus two controls (MN13177 male and MN 13153 male) and infected with 5×10^6 P. falciparum FVO malaria parasites with 1 ml of an appropriate dilution in RPMI media intravenously on the saphenous vein. When their parasitemia reached 5×10^4 parasites/ul, treatment was started. Giemsa-stained thick blood smears were prepared daily with a prick in the ear marginal vein and parasites enumerated by the Earle and Perez method. Group 1 Aotus received 3e at 1 mg/kg once a day×three days. Group 2 Aotus received 2b at 1 mg/kg once a day×three days. The monkeys were weight and pre-bled for CBC and Chemistry (ALT, BUN, Creatinine) determination, and on day 4 post-treatmetne (PT). Bleedings for Pk determinations were carried out on day 1 PT at time 0, 1 hr, 7:30 hr and 24 hr PT. Group 1 (receiving 3e) animals cleared the parasitemias on day 3 post treatment (PT) and remained negative up to 100 days PT. In group 2 (receiving 2b), one animal cleared on day 3 PT and the other one on day 4 PT remaining negative up to 100 days PT. […] (g). Antimalarial Activity against P. vivax in Aotus monkey: Protocol: Fourteen (14) P. falciparum cured Aotus l. lemurinus monkeys (male and female) (weight 700-925 grms) were infected intravenously with 5×10^6 parasites of the P. vivax AMRU-1 strain diluted in RPMI media obtained from a donor and divided into two larger groups of 6 monkeys each (Group I and Group II) (2 monkeys per dose level), that received 3e and 6 monkeys (2 monkeys per dose level) that received 2b daily at 0.5, 1.0 and 3 mg/kg/day for a total of 3 days. Two monkeys were left has untreated controls. Treatment started when parasitemia reached 5,000 parasites×cc/mm on day 6 PI. Daily food intake was documented. Daily Giemsa-stained thick blood smears were prepared from a prick in the marginal ear vein and parasites enumerated by the Earle and Perez method. The animals were weighed at weekly intervals. Blood samples for Pk determination were collected at the following time points as follows: Day 0: CBC and chemistry panel (ALT. Creatinine and BUN); Day 4: CBC and chemistry Panel. CBC and chemistry panels were done the day prior to first dose and 24 hours after last dose and at weekly intervals thereafter. […] The other monkeys received 1 and 3 mg/kg of 3e remained negative until day 100 PT. In Group II, all monkeys except for one that received 3 mg/kg of 2b failed treatment and were retreated on day 3 PT with 3e at either 0.25, 0.5 or 1 mg/kg for three days. In the monkeys that received re-treatment at 0.25 mg/kg, one cleared on day 4 PT but needed to be treated with Mefloquine on day 8 PT due to a low platelet count. The other animals that had not been cleared by day 6 PT were treated with Mefloquine. […] P. vivax is known to be very drug resistant to antifolates. (h). Presumptive Causal Prophylactic Test against P. cynomolgi in Rhesus monkey: Protocol:
(1). Type of study: This study is causal prophylactic test. Six Rhesus monkeys weighing 3-4 kg were randomized to 2 control animals and 2 groups of 2 experimental animals each.
(2). Donor monkey: A donor monkey was inoculated intravenously with 1.3 mL freshly-thawed frozen infected red blood cell. When the monkey developed gametocytemia, mosquito feedings were conducted on days 13 and 14 after inoculation. […]

[2] = Death rates after single intragastric treatment in rats; format: in vivo

Row | SMILES | comparative protection activity ([1]; P. cynomolgi) | day of parasitemia development after sporozoite challenge ([1]; oral 1 mg/kg on days -1, 0, 1, control day 8, listed as WR288830) | protection compared with untreated control [1] | Deaths ([2]; rats n=4, single intragastric 50 mg/kg in 1% CMC suspension) | Deaths ([2]; rats n=4, single intragastric 100 mg/kg in 1% CMC suspension) | Deaths ([2]; rats n=4, single intragastric 200 mg/kg in 1% CMC suspension) | Deaths ([2]; rats n=4, single intragastric 400 mg/kg in 1% CMC suspension) | Deaths ([2]; rats n=4, single intragastric 800 mg/kg in 1% CMC suspension) | Day of Death: number of deaths ([2]; rats, 800 mg/kg, first cell after Deaths (day uncertain)) | day of parasitemia development after sporozoite challenge ([1]; oral 1 mg/kg on days -1, 0, 1, control day 8) | day of parasitemia development after sporozoite challenge ([1]; oral 3 mg/kg on days -1, 0, 1, control day 8) [days] | therapeutic index ([2]; rats) | drug-related deaths in rats ([2]; up to 800 mg by a single oral dose)
1 | CCOC(=O)Nc1nc(NC(=O)OCC)c2c(ccc3c2ccn3Cc2ccccc2C(F)(F)F)n1 [Compound 2b] | better protection activity than 3e | 9 days and 15 days | 8 days and 15 days | 0/4 | 0/4 | 0/4 | 0/4 | 1/4 | 1 | – | – | – | –
2 | CC(=O)N(C(C)=O)c1nc(N(C(C)=O)C(C)=O)c2c(ccc3c2ccn3Cc2ccccc2C(F)(F)F)n1 [Compound 3e, 1,3-Bis(diacetylamino)-7-(2-trifluoromethyl)benzyl-7H-pyrrolo[3,2-f]quinazoline] | – | – | 7 days | – | – | – | – | – | – | 8 days and 11 days | 15 | > 160 | no drug-related deaths
